In patent US11944624B2, “Peptide and small molecule agonists of EphA and their uses” (CASE WESTERN RESERVE UNIVERSITY, priority 2017, dated 2024):
“Also recorded” adds a separate entry of the source.

What was measured:
EphA2 [1] = biological target: T1, EphA2 (Homo sapiens, UniProt P29317); experiment: EphA2 activation in MDA-MB-231-A2 cells (phosphorylated/total EphA2, Example 2); type: cell-based; design: expressed in transfected cells; host or cells: MDA-MB-231 (MDA-231-A2 / MDA-MB-231-A2), puromycin selected; settings: MDA-MB-231-A2 cells, 2, 10 and 50 μM, 30 min
Procedure: To evaluate the compounds, we utilized a MDA-MB-231 breast cancer cell line which overexpresses EphA2 receptor (MDA-MB-231-A2). The ratio of phosphorylated EphA2 protein over total EphA2 protein was measured after treatment with the various compounds as the readout for receptor activation. All the compounds were examined with doses of 2, 10, and 50 μM, and we used 50 μM Doxazosin and 0.5% DMSO as the positive and negative control, respectively (FIG. 27). […] Inspired by the dimer design, we also generated dimer structure based on the piperazine ring as the core as illustrated by compounds 25 and 26.
MDA-MB-231 EphA2-overexpressing cells were plated in 12-well dishes at a density of 100,000 cells/well and grown for 24 hours prior to stimulation with appropriate compounds and ephrins for 30 min and 10 min, respectively. Compounds were prepared in DMSO at 200 times the final concentrations and 0.5% DMSO was used as vehicle control. Following treatment, cells were washed and lysed in modified RIPA Buffer (20 mM Tris-HCl pH 7.4, 20 mM NaF, 150 mM NaCl, 10% glycerol, 0.1% SDS, 0.5% DCA, 2 mM EDTA, 1% Triton X-100, 2 mM Na3VO4, and protease inhibitors, including 1 mM phenylmethylsulphonyl fluoride, and 2 μg/ml each of aprotinin and leupeptin) for 20 min, followed by immunoprecipitation. For immunoprecipitation, lysates were combined with 10 μg of ephrin-A1-Fc and 10-15 μl of Gamma-Bind Protein G beads (GE Healthcare Bioscience, Pittsburgh, PA) and rotated for 3 hours at 4° C. 10 μg of human unconjugated Fc was used as a negative control. Beads were pelleted at 9,000 rpm for 2 min at 4° C., and washed twice with 1 ml of IP Wash Buffer (20 mM Tris, pH 7.4, 10% glycerol, 50 mM NaCl, 0.2% Triton X-100, 0.5 mM Na3VO4, 0.5 mM PMSF). All wash buffer was removed and beads were resuspended in 25 μl of 4× LDS Loading Buffer (Thermo Fisher, Grand Island, NY) with 4 μl of 10× Bolt Sample Reducing Agent (Thermo Fisher), followed by Western Blotting. Samples were boiled 5 min and run on 4-12% Bis-Tris Plus gels (Thermo Fisher), followed by transfer to Immobilon-P PVDF membranes (Millipore, Billerica, MA). Membranes were blocked 1 hr at room temperature in 3% BSA in TBS containing 0.05% Tween-20 (TBS-T) followed by overnight incubation with pEphA/B (1:500) and EphA2 (Santa Cruz) (1:1000) primary antibodies. Membranes were washed in TBS-T and incubated with goat anti-rabbit-HRP (1:5000) secondary antibody 1 hr at room temperature, followed by washing and developing with Luminol Reagent (Santa Cruz). Band intensities were quantified using Quantity One software (Bio-Rad, Hercules, CA).

MDA-MB-231 cells = experiment: Clonogenic (colony formation) assay; type: cell-based; settings: 0.08-10 μM, 14 days
Procedure: MDA-MB-231 cells (1000 cells/well) were seeded in 12-well plates and cultured for 24 h, followed by treatment with various concentrations of the Doxazosin analogs (0, 0.08, 0.4, 2 and 10 μM) in 0.5% DMSO for 14 days. After washing with PBS, colonies were fixed in 4% paraformaldehyde in PBS, washed in 20% methanol, and stained with 0.5% crystal violet.

[2] = biological target: T2, rat α1a adrenergic receptor (Rattus norvegicus, UniProt P43140); experiment: Adrenoceptor binding, [3H]-prazosin competition; settings: [3H]-prazosin 0.25 nM, triplicate, mean±SD; read-out: IC50, α-adrenoceptor binding
T2 construct: Eurofins Panlabs Taiwan, Ltd. (contract assay)
T2 sequence (P43140 1-466): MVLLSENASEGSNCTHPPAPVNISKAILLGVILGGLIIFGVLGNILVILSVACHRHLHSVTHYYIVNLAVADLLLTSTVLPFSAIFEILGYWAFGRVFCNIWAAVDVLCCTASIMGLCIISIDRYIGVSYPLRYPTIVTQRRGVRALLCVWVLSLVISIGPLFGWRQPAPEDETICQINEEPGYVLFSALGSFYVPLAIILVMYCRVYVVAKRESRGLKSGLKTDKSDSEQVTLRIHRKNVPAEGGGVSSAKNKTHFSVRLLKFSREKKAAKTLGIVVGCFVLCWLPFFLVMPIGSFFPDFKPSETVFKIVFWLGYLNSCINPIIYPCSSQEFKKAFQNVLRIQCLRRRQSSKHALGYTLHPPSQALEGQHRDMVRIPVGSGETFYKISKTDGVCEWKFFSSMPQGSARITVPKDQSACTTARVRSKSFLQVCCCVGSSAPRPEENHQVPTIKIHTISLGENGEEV
Procedure: Analysis of Doxazosin and analog binding to rat α1a adrenergic receptor was performed by Eurofins Panlabs Taiwan, Ltd. (Taiwan). [^3H]-prazosin at 0.25 nM was used as the radioligand. […] Non-specific binding was defined by use of 10 μM phentolamine. Incubations were terminated by vacuum filtration over 0.1% PEI pretreated glass fiber filters and filters were washed for 10 s with ice cold 0.1M NaCl and radioactivity retained on the filters was determined by liquid scintillation spectrometry. IC50 values were determined by a non-linear regression analysis using GraphPad Prism v.5 (GraphPad).

EphA2 [3] = biological target: T1, EphA2; experiment: EphA2 internalization in MDA-MB-231 cells (immunofluorescence, Example 2); type: cell-based; design: expressed in transfected cells; host or cells: MDA-MB-231 (MDA-231-A2 / MDA-MB-231-A2), puromycin selected; settings: 1 hr, doses 0.4, 2, 10, 50 μM
Procedure: This was performed using the MDA-MB-231 cell line. This cell line spreads well in culture, thereby facilitating immunofluorescence detection of cell surface and intracellular EphA2 (FIG. 28). […] MDA-MB-231 cells were plated in 24-well plates on 10 mm square coverslips coated with 10 μg/ml fibronectin and incubated 24-48 hrs before treatment with 50 μM Doxazosin and various doses of compound 27 (0.4, 2, 10, 50 μM) in 0.5% DMSO for 1 hr. As another positive control, cells were treated with 2 μg/ml ephrin-A1-Fc. Cells were then washed with PBS and fixed with 4% paraformaldehyde (Electron Microscopy Sciences, Hatfield, PA) on ice for 10 min, followed by washing and permeabilization with 0.4% NP-40 for 10 min on ice. […] Cells were then incubated in primary mouse EphA2 antibody (D7, 1:100) in 0.1% BSA/PBS for 1 hr at room temperature, washed in PBS and BSA/PBS, followed by incubation in secondary donkey anti-mouse Alexa Fluor 488 antibody (1:300) in BSA/PBS for 30 min at room temperature. Cells were washed in PBS and BSA/PBS, followed by mounting in DAPI Mounting Medium (Electron Microscopy Sciences). Images were taken with a Leica microscope.

T1 sequence (P29317 24-976): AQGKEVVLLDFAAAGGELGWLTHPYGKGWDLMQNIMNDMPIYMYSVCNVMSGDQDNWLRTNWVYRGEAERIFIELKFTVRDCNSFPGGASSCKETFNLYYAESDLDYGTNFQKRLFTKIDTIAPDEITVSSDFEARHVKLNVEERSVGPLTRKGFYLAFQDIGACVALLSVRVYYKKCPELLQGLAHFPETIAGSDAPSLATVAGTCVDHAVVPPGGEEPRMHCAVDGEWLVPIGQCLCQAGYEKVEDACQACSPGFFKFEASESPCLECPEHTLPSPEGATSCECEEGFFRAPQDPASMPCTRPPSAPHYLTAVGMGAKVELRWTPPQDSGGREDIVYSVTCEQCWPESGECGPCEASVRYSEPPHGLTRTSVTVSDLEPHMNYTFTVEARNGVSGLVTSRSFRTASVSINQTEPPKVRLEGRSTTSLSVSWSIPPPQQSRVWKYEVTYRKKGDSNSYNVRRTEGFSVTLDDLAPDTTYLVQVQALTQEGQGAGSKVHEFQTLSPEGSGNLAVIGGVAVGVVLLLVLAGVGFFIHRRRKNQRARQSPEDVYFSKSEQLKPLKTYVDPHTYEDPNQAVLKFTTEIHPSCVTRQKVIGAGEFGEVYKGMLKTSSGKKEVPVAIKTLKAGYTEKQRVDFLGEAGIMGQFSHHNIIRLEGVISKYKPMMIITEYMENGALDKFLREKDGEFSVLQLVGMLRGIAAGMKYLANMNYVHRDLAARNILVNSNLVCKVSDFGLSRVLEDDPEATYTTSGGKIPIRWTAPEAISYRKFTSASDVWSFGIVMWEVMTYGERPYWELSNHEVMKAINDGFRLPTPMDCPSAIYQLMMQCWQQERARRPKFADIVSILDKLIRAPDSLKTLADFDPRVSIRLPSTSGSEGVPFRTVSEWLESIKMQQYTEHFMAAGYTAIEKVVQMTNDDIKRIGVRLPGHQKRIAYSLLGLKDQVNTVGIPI

Structure (SMILES) | EphA2 activation compared to 50 μM Doxazosin (EphA2 [1]) | IC50 [2] [nM] | concentration at which EphA2 internalization happened (EphA2 [3]) [µM] | inhibition of colony formation (MDA-MB-231 cells)
COc1cc2nc(N3CCN(C(=O)c4ccc5ccccc5c4)CC3)nc(N)c2cc1OC [Compound 1, (4-(4-amino-6,7-dimethoxyquinazolin-2-yl)piperazin-1-yl)(naphthalen-2-yl)methanone] | higher activity than compound 3; also recorded: did not show a much higher activity than the lead compound Doxazosin | – | – | –
COc1cc2nc(N3CCN(C(=O)c4cccc(-c5ccccc5)c4)CC3)nc(N)c2cc1OC [Compound 2, [1,1′-biphenyl]-3-yl(4-(4-amino-6,7-dimethoxyquinazolin-2-yl)piperazin-1-yl)methanone] | higher activity than compound 3; also recorded: did not show a much higher activity than the lead compound Doxazosin | – | – | –
COc1cc2nc(N3CCN(C(=O)c4ccc(Cl)c([N+](=O)[O-])c4)CC3)nc(N)c2cc1OC [Compound 13, (4-(4-amino-6,7-dimethoxyquinazolin-2-yl)piperazin-1-yl)(4-chloro-3-nitrophenyl)methanone] | decreases the activity | – | – | –
COc1cc2nc(N3CCN(C(=O)Cc4ccc(OCc5ccccc5)cc4)CC3)nc(N)c2cc1OC [Compound 24, 1-(4-(4-amino-6,7-dimethoxyquinazolin-2-yl)piperazin-1-yl)-2-(4-(benzyloxy)phenyl)ethanone] | potent EphA2 activation; also recorded: improved EphA2 activation compared to Doxazosin | 4.28 ± 3.1 | – | slightly weaker activity compared to compound 27; also recorded: inhibit the colony formation
COc1cc2nc(N3CCN(C(=O)CCCCCCCCCCC(=O)N4CCN(c5nc(N)c6cc(OC)c(OC)cc6n5)CC4)CC3)nc(N)c2cc1OC [Compound 27, 1,12-bis(4-(4-amino-6,7-dimethoxyquinazolin-2-yl)piperazin-1-yl)dodecane-1,12-dione] | superior activity within the new compound pool; also recorded: significantly increased activity compared to Doxazosin; also recorded: the most active one in the SAR study; also recorded: improved EphA2 activation compared to Doxazosin | 2.5 ± 1.62 | 0.4 | inhibited colony formation even at nanomolar concentrations; also recorded: inhibit the colony formation; also recorded: inhibits cancer cell colony formation
COc1cc2nc(N3CCN(C(=O)CCCCC(=O)N4CCN(c5nc(N)c6cc(OC)c(OC)cc6n5)CC4)CC3)nc(N)c2cc1OC [Compound 28, 1,6-bis(4-(4-amino-6,7-dimethoxyquinazolin-2-yl)piperazin-1-yl)hexane-1,6-dione] | does not show any activity to activate EphA2 | – | – | –
COc1cc2nc(N3CCN(C(=O)C4COc5ccccc5O4)CC3)nc(NC(C)=O)c2cc1OC (centres unmarked) [Compound 29, N-(2-(4-(2,3-dihydrobenzo[b][1,4]dioxine-2-carbonyl)piperazin-1-yl)-6,7-dimethoxyquinazolin-4-yl)acetamide] | significantly diminishes the activity | – | – | –
COc1cc2nc(N3CCN(C(=O)Cc4ccc(OCc5ccccc5)cc4)CC3)nc(NC(C)=O)c2cc1OC [Compound 30, N-(2-(4-(2-(4-(benzyloxy)phenyl)acetyl)piperazin-1-yl)-6,7-dimethoxyquinazolin-4-yl)acetamide] | significantly diminishes the activity | – | – | –
COc1cc2nc(N3CCN(C(=O)Cc4ccc(OCc5ccccc5)cc4)CC3)nc(N3CCCCC3)c2cc1OC [Compound 31, 2-(4-(benzyloxy)phenyl)-1-(4-(6,7-dimethoxy-4-(piperidin-1-yl)quinazolin-2-yl)piperazin-1-yl)ethanone] | harm the EphA2 activation | – | – | –

Second part, led by results:

EphA2 activation compared to 50 μM Doxazosin (EphA2 [1]) | IC50 [2] [nM] | concentration at which EphA2 internalization happened (EphA2 [3]) [µM] | Structure (SMILES) | inhibition of colony formation (MDA-MB-231 cells)
slightly decreased activity | – | – | CCCCCC(=O)N1CCN(c2nc(N)c3cc(OC)c(OC)cc3n2)CC1 [Compound 23, 1-(4-(4-amino-6,7-dimethoxyquinazolin-2-yl)piperazin-1-yl)hexan-1-one] | moderate activity to inhibit the colony formation
significantly decreased activity | – | – | COc1ccc(C(=O)N2CCN(C(=O)c3ccc(OC)cc3)CC2)cc1 [Compound 25, piperazine-1,4-diylbis((4-methoxyphenyl)methanone)] | –
significantly decreased activity | – | – | CSc1ccc(C(=O)N2CCN(C(=O)c3ccc(SC)cc3)CC2)cc1 [Compound 26, piperazine-1,4-diylbis((4-(methylthio)phenyl)methanone)] | –
harm the EphA2 activation | – | – | COc1cc2nc(N3CCN(C(=O)Cc4ccc(OCc5ccccc5)cc4)CC3)nc(N3CCCC3)c2cc1OC [Compound 32, 2-(4-(benzyloxy)phenyl)-1-(4-(6,7-dimethoxy-4-(pyrrolidin-1-yl)quinazolin-2-yl)piperazin-1-yl)ethanone] | –
diminishes the activity | – | – | CCOc1cc2nc(N3CCN(C(=O)Cc4ccc(OCc5ccccc5)cc4)CC3)nc(N)c2cc1OCC [Compound 33, 1-(4-(4-amino-6,7-diethoxyquinazolin-2-yl)piperazin-1-yl)-2-(4-(benzyloxy)phenyl)ethanone] | –
